In publication PMC8373216, “Development and Preclinical Evaluation of New Inhaled Lipoglycopeptides for the Treatment of Persistent Pulmonary Methicillin-Resistant Staphylococcus aureus Infections” (Antimicrobial Agents and Chemotherapy, 2021):
Read-outs that look alike come from different tables or passages of the source.

Key:
S. aureus = assay: Expanded panel broth microdilution MIC/MBC; conditions: for MIC: Staphylococcus aureus
[1] = system: Streptococcus constellatus; assay: Expanded panel broth microdilution MIC; format: cell-based
[2] = system: Peptostreptococcus anaerobius; assay: Expanded panel broth microdilution MIC; format: cell-based
[3] = system: Streptococcus dysgalactiae; assay: Expanded panel broth microdilution MIC/MBC; format: cell-based; conditions: for MIC: Streptococcus dysgalactiae
Streptococcus anginosus = assay: Expanded panel broth microdilution MIC/MBC; format: cell-based; conditions: for MIC: Streptococcus anginosus, read-out: MIC
Cutibacterium acnes = assay: Expanded panel broth microdilution MIC; format: cell-based
[4] = system: MRSA ATCC BAA 1556 (USA300) biofilm; assay: Static MRSA biofilm killing, plastic microtiter plate, MEM
[5] = system: MRSA ATCC BAA 1556 (USA300); assay: In-house broth microdilution MIC screening; format: cell-based, Staphylococcus aureus; conditions: Staphylococcus aureus; broth microdilution; read-out: MIC Value, MRSA ATCC BAA 1556
Streptococcus oralis = assay: Expanded panel broth microdilution MIC; format: cell-based
Enterococcus faecium = assay: Expanded panel broth microdilution MIC/MBC; format: cell-based; conditions: for MIC: Enterococcus faecium, read-out: MIC
Clostridium. perfringens = assay: microbe, parasite or virus in culture; format: cell-based
Streptococcus agalactiae = assay: Expanded panel broth microdilution MIC/MBC; format: cell-based; conditions: for MIC: Streptococcus agalactiae
[6] = system: Staphylococcus epidermidis; assay: Expanded panel broth microdilution MIC/MBC; format: cell-based; conditions: for MIC: Staphylococcus epidermidis

CCCCCCCCCCNCCN[C@@]1(C)C[C@H](O[C@H]2[C@H](Oc3c4cc5cc3Oc3ccc(cc3Cl)[C@@H](O)[C@@H](NC(=O)[C@@H](CC(C)C)NC)C(=O)N[C@@H](CC(N)=O)C(=O)N[C@H]5C(=O)N[C@H]3C(=O)N[C@H](C(=O)N[C@H](C(=O)O)c5cc(O)cc(O)c5-c5cc3ccc5O)[C@H](O)c3ccc(c(Cl)c3)O4)O[C@H](CO)[C@@H](O)[C@@H]2O)O[C@@H](C)[C@H]1O [RV40, N-decylaminoethylvancomycin]
4 ng/mL: MIC (Enterococcus faecium; E. faecium MMX 4204, VSE) | MIC (Enterococcus faecium; E. faecium VSE, 1 isolate) | MIC ([6]; MRSE, S. epidermidis MMX 5145, MRSE, read-out: MIC)
16 ng/mL: MIC [5]
120 ng/mL: MIC ([3]; S. dysgalactiae MMX 5123, read-out: MIC)
1: MIC:MBC (S. aureus; S. aureus MRSA, MBC median of n = 5) | MIC:MBC (S. aureus; S. aureus MSSA, MBC on one organism) | MIC:MBC (S. aureus; S. aureus VISA, MBC median of n = 2) | MIC:MBC (S. aureus; S. aureus hVISA, MBC on one organism) | MIC:MBC ([3]; S. dysgalactiae, MBC on one organism) | MIC:MBC (Streptococcus agalactiae; S. agalactiae, MBC on one organism) | MIC:MBC ([6]; S. epidermidis MRSE, MBC on one organism)
8 ng/mL: MIC (S. aureus; ATCC29213 / MSSA, S. aureus ATCC 29213, MSSA) | MIC (S. aureus; ATCC43300 / MRSA, S. aureus ATCC 43300, MRSA) | MIC (S. aureus; ATCCBAA1556|MRSA|USA300, S. aureus ATCC BAA-1556, MRSA, USA300 (expanded panel)) | MIC (S. aureus; ATCCBAA1756|MRSA|NRS384|USA300, S. aureus NRS 384, ATCC BAA-1756, MRSA, USA300) | MIC (S. aureus; MRSA / NRS123 / USA400, S. aureus NRS123, MRSA, USA400) | MIC (S. aureus; MRSA / NRS725 / USA300, S. aureus NRS725, MRSA, USA300) | MIC (S. aureus; MRSA / USA300, S. aureus MMX 3982, MRSA, USA300) | MIC (S. aureus; MRSA, S. aureus MMX 7899, MRSA) | MIC (S. aureus; MRSA, S. aureus MMX 7900, MRSA) | MIC (S. aureus; MRSA, S. aureus MMX 7901, MRSA) | MIC (S. aureus; MRSA, S. aureus MMX 7903, MRSA) | MIC (S. aureus; MRSA, read-out: MIC (median), S. aureus MRSA, 12 isolates) | MIC (S. aureus; MSSA, S. aureus MMX 7907, MSSA) | MIC ([1]; S. constellatus AGS, 1 isolate) | MIC ([1]; Streptococcus constellatus, S. constellatus (AGS) MMX 5677, read-out: MIC) | MIC ([2]; ATCC27337, P. anaerobius ATCC 27337, read-out: MIC) | MIC ([2]; P. anaerobius, 1 isolate, read-out: MIC) | MIC ([3]; S. dysgalactiae MMX 5121, read-out: MIC) | MIC (Cutibacterium acnes; ATCC6919, P. acnes ATCC 6919, read-out: MIC) | MIC (Cutibacterium acnes; ATCC11827, P. acnes ATCC 11827, read-out: MIC) | MIC (Cutibacterium acnes; C. acnes, 2 isolates, read-out: MIC (median)) | MIC (Enterococcus faecium; VRE, E. faecium MMX 173, VanB VRE) | MIC (Enterococcus faecium; VRE, E. faecium VanB VRE, 1 isolate) | MIC (Streptococcus agalactiae; ATCC13813, S. agalactiae ATCC 13813, read-out: MIC) | MIC (Streptococcus agalactiae; S. agalactiae MMX 4088, read-out: MIC) | MIC (Streptococcus agalactiae; S. agalactiae MMX 4115, ermR, read-out: MIC) | MIC (Streptococcus agalactiae; S. agalactiae ermR, 1 isolate, read-out: MIC) | MIC (Streptococcus agalactiae; S. agalactiae, 2 isolates, read-out: MIC (median)) | MIC ([6]; MRSE, S. epidermidis MMX 762, MRSE, read-out: MIC) | MIC ([6]; MRSE, S. epidermidis MRSE, 2 isolates, read-out: MIC (median))
15 ng/mL: MIC (S. aureus; ATCC13709 / MSSA, S. aureus ATCC 13709, MSSA) | MIC (S. aureus; MRSA, S. aureus MMX 5715, MRSA) | MIC (S. aureus; MRSA, S. aureus MMX 7902, MRSA) | MIC (S. aureus; MSSA, S. aureus MMX 7908, MSSA) | MIC (S. aureus; NRS2, S. aureus NRS2, hVISA;Mu3) | MIC ([3]; S. dysgalactiae MMX 5124, read-out: MIC) | MIC ([3]; S. dysgalactiae, 3 isolates, read-out: MIC (median)) | MIC (Streptococcus anginosus; ATCC33397, S. anginosus (AGS) ATCC 33397) | MIC (Streptococcus anginosus; S. anginosus AGS, 1 isolate) | MIC (Streptococcus oralis; S. oralis MGS, 1 isolate) | MIC (Streptococcus oralis; Streptococcus oralis, S. oralis (MGS) MMX 5821, read-out: MIC) | MIC (Clostridium. perfringens) | MIC (Clostridium. perfringens; ATCC13124) | MIC ([6]; ATCC49134, S. epidermidis ATCC 49134, MSSE, read-out: MIC) | MIC ([6]; S. epidermidis MSSE, 1 isolate, read-out: MIC)
~3 log10 CFU/ml: Reduction in MRSA biofilm titer versus control ([4]; doses 1 to 10 μg/ml)
1000 ng/mL: MIC (Enterococcus faecium; VRE, E. faecium MMX 851, VanA VRE) | MIC (Enterococcus faecium; VRE, E. faecium VanA VRE, 1 isolate)
≥ 1.25 µg/mL: Concentrations with statistically significant reduction versus control biofilm ([4]; two-way ANOVA, Bonferroni)
12 ng/mL: MIC (S. aureus; MSSA, read-out: MIC (median), S. aureus MSSA, 4 isolates)
23 ng/mL: MIC (S. aureus; read-out: MIC (median), S. aureus hVISA, 2 isolates)
60 ng/mL: MIC (S. aureus; NRS1 / VISA, S. aureus NRS1, VISA, Mu50) | MIC (S. aureus; NRS4 / VISA, S. aureus NRS4, VISA) | MIC (S. aureus; NRS22 / VISA, S. aureus NRS22, VISA) | MIC (S. aureus; VISA, read-out: MIC (median), S. aureus VISA, 5 isolates)
>8: MIC:MBC (Streptococcus anginosus; S. anginosus AGS) | MIC:MBC (Enterococcus faecium; E. faecium VanB VRE)
>4: MIC:MBC (Enterococcus faecium; E. faecium VanA VRE)
30 ng/mL: MIC (S. aureus; NRS13 / VISA, S. aureus NRS13, VISA) | MIC (S. aureus; NRS23, S. aureus NRS23, hVISA) | MIC (S. aureus; NRS52 / VISA, S. aureus NRS52, VISA)
